In assay [1] the target is T1, Integrin alpha-4/beta-1 (Homo sapiens, UniProt P05556+P13612). Briefly: Antagonistic activity against VLA-4 (derived from ramos cells) binding to recombinant human VCAM by ELISA assay. Format: cell-based. (In an ELISA, binding on a coated surface is turned into a signal by an enzyme label.)
In assay [2] the target is T1, Integrin alpha-4/beta-1. Nature of the assay: Antagonistic activity against VLA-4 binding to recombinant human VCAM by ramos cell assay. Format: cell-based.

Structures are written as SMILES. pIC50: −log10 of the molar value.

T1 sequence (P05556 whole entry): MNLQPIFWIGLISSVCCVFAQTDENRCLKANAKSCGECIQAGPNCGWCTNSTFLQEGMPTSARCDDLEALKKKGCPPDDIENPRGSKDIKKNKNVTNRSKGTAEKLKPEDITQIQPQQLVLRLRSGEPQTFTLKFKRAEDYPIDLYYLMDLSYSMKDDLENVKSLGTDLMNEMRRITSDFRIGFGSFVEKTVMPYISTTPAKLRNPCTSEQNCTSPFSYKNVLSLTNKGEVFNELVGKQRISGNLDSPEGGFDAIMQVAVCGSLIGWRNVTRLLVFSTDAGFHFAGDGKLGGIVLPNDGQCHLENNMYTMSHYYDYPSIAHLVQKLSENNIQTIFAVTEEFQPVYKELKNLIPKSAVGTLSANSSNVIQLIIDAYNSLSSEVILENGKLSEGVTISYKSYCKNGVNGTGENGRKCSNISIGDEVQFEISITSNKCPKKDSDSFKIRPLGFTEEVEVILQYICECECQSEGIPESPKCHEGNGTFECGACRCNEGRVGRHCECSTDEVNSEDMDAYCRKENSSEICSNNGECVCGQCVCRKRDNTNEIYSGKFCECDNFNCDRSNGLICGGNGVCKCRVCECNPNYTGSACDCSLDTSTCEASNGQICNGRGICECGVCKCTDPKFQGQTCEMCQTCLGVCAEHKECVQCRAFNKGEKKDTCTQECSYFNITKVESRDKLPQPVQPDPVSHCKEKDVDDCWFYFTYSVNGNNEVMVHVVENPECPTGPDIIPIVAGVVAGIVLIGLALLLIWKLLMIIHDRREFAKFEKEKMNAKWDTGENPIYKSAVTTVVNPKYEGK
T1 sequence (P13612 whole entry): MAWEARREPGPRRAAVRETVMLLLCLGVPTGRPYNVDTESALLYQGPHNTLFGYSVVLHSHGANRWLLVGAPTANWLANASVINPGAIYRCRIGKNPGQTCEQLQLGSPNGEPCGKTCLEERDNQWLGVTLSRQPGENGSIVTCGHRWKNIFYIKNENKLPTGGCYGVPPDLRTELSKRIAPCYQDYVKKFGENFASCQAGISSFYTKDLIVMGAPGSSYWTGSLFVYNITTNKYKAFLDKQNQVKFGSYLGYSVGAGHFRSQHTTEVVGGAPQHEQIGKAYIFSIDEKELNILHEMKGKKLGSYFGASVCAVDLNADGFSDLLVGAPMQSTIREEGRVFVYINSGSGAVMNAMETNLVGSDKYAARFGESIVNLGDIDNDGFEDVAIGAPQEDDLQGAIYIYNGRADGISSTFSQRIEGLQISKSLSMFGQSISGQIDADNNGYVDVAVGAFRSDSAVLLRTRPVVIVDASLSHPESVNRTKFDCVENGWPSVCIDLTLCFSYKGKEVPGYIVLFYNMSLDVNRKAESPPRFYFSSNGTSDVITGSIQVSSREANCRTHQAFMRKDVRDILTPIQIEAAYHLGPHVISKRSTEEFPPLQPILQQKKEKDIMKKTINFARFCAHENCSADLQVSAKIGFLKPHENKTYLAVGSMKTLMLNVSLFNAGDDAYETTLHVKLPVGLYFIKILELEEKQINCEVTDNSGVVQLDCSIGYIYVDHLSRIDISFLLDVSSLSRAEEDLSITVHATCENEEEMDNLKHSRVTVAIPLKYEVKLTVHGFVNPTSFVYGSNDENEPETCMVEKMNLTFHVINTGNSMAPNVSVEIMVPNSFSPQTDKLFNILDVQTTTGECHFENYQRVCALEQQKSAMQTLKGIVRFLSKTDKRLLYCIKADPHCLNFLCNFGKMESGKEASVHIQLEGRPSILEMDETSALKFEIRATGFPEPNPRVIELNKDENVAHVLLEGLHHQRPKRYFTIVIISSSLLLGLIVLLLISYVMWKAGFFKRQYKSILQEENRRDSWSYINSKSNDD

Take `O=C(O)[C@H](Cc1ccc(CO)cc1)NC(=O)[C@@H]1CCC(=O)N1Cc1ccccc1`: the pIC50 on Integrin alpha-4/beta-1 [1] was 6.82.
Turning to `O=C(Nc1ccc(C[C@H](NC(=O)C2CCC(=O)N2Cc2ccccc2)C(=O)O)cc1)c1c(Cl)cccc1Cl` (stereo partly drawn), the pIC50 on Integrin alpha-4/beta-1 [2] is 7.92; at Integrin alpha-4/beta-1 [1] it was 9.43.
In the same order, the values of `O=C(Nc1ccc(C[C@H](NC(=O)C2CCC(=O)N2Cc2ccccc2)C(=O)O)cc1)c1ccnc2ccccc12` (stereo partly drawn) are 7.10 and 8.85.
In the same order, the values of `O=C(Nc1ccc(C[C@H](NC(=O)[C@@H]2CCC(=O)N2Cc2ccccc2)C(=O)O)cc1)c1ccccc1` are 6.51 and 8.20.
For the molecule `COc1ccc(C[C@H](NC(=O)[C@@H]2CCC(=O)N2Cc2ccccc2)C(=O)O)cc1`, the pIC50 on Integrin alpha-4/beta-1 [1] is 6.80.
Same read-out and setting: then `O=C(O)[C@H](Cc1ccc([N+](=O)[O-])cc1)NC(=O)[C@@H]1CCC(=O)N1Cc1ccccc1`, with 6.25.
With `O=C(O)[C@H](Cc1ccc(NS(=O)(=O)c2ccc([N+](=O)[O-])cc2)cc1)NC(=O)[C@@H]1CCC(=O)N1Cc1ccccc1`, the pIC50 at Integrin alpha-4/beta-1 [2] is 4.80; on Integrin alpha-4/beta-1 [1] it was 7.77.
For `O=C(Nc1ccc(C[C@H](NC(=O)C2CCC(=O)N2Cc2ccccc2)C(=O)O)cc1)c1cc(C(F)(F)F)ccc1C(F)(F)F` (stereo partly drawn) the same measures were 7.27 and 8.96.
As for `CC1CCC(C[C@H](NC(=O)[C@@H]2CCC(=O)N2Cc2ccccc2)C(=O)O)CC1` (stereo partly drawn), the negative logarithm of the IC50 (pIC50) at Integrin alpha-4/beta-1 [1] is 4.37.
`O=C(Nc1ccc(C[C@H](NC(=O)C2CCC(=O)N2Cc2ccccc2)C(=O)O)cc1)c1ccc(F)cc1C(F)(F)F` (stereo partly drawn): the pIC50 is 7.55 at Integrin alpha-4/beta-1 [2] and 9.12 on Integrin alpha-4/beta-1 [1].
`O=C(O)[C@H](Cc1ccc(CCc2ccccc2)cc1)NC(=O)[C@@H]1CCC(=O)N1Cc1ccccc1`: the pIC50 on Integrin alpha-4/beta-1 [1] is 7.42.
For the molecule `O=C(O)[C@H](Cc1cccc2ccccc12)NC(=O)[C@@H]1CCC(=O)N1Cc1ccccc1`, the pIC50 at Integrin alpha-4/beta-1 [1] was 6.64.
On to `CC(=O)N[C@@H](Cc1ccc(O)cc1)C(=O)Nc1ccc(C[C@H](NC(=O)[C@@H]2CCC(=O)N2Cc2ccccc2)C(=O)O)cc1`, for which the pIC50 on Integrin alpha-4/beta-1 [2] was 5.68; at Integrin alpha-4/beta-1 [1], 8.09.
For `COc1ccc([N+](=O)[O-])cc1C(=O)Nc1ccc(C[C@H](NC(=O)C2CCC(=O)N2Cc2ccccc2)C(=O)O)cc1` (stereo partly drawn) the same measures were 7.55 and 9.09.
In the same order, the values of `NS(=O)(=O)c1ccc(C(=O)Nc2ccc(C[C@H](NC(=O)C3CCC(=O)N3Cc3ccccc3)C(=O)O)cc2)cc1` (stereo partly drawn) are 5.97 and 8.46.
Regarding `O=C(NCc1ccc(C[C@H](NC(=O)[C@@H]2CCC(=O)N2Cc2ccccc2)C(=O)O)cc1)c1cccnc1`, the pIC50 at Integrin alpha-4/beta-1 [1] is 7.28.
With `O=C(Nc1ccc(C[C@H](NC(=O)[C@@H]2CCC(=O)N2Cc2ccccc2)C(=O)O)cc1)c1ccc([N+](=O)[O-])cc1`, the pIC50 was 6.25 at Integrin alpha-4/beta-1 [2] and 8.66 at Integrin alpha-4/beta-1 [1].
Consider `O=C(O)[C@H](Cc1ccc2c(c1)OCO2)NC(=O)[C@@H]1CCC(=O)N1Cc1ccccc1`, for which the pIC50 at Integrin alpha-4/beta-1 [1] is 6.66.
As to `O=C(O)[C@H](Cc1ccc(NS(=O)(=O)c2cccc(C(F)(F)F)c2)cc1)NC(=O)[C@@H]1CCC(=O)N1Cc1ccccc1`, the pIC50 was 4.59 at Integrin alpha-4/beta-1 [2] and 7.70 on Integrin alpha-4/beta-1 [1].
Consider `N#Cc1cccc(C(=O)Nc2ccc(C[C@H](NC(=O)C3CCC(=O)N3Cc3ccccc3)C(=O)O)cc2)c1` (stereo partly drawn), for which the pIC50 was 6.59 at Integrin alpha-4/beta-1 [2] and 8.34 on Integrin alpha-4/beta-1 [1].
In the same order, the values of `O=C(Nc1ccc(C[C@H](NC(=O)C2CCC(=O)N2Cc2ccccc2)C(=O)O)cc1)c1ccccn1` (stereo partly drawn) are 6.59 and 8.44.
For `O=C(Nc1ccc(C[C@H](NC(=O)C2CCC(=O)N2Cc2ccccc2)C(=O)O)cc1)c1ccc(Cl)cc1[N+](=O)[O-]` (stereo partly drawn) the same measures were 8.15 and 9.43.
In the same order, the values of `O=C(Nc1ccc(C[C@H](NC(=O)C2CCC(=O)N2Cc2ccccc2)C(=O)O)cc1)c1cccnc1O` (stereo partly drawn) are 5.73 and 8.40.
As for `O=C(Nc1ccc(C[C@H](NC(=O)C2CCC(=O)N2Cc2ccccc2)C(=O)O)cc1)c1cc(F)c(F)cc1F` (stereo partly drawn), the pIC50 is 6.90 on Integrin alpha-4/beta-1 [2] and 8.80 at Integrin alpha-4/beta-1 [1].
In the same order, the values of `COc1ccc(C(=O)Nc2ccc(C[C@H](NC(=O)C3CCC(=O)N3Cc3ccccc3)C(=O)O)cc2)c(OC)n1` (stereo partly drawn) are 6.99 and 8.62.
For `Cc1ccc(C(=O)Nc2ccc(C[C@H](NC(=O)C3CCC(=O)N3Cc3ccccc3)C(=O)O)cc2)c(Cl)n1` (stereo partly drawn) the same measures were 7.48 and 8.62.
As for `[N-]=[N+]=NCc1ccc(C[C@H](NC(=O)[C@@H]2CCC(=O)N2Cc2ccccc2)C(=O)O)cc1`, the pIC50 on Integrin alpha-4/beta-1 [1] is 7.13.
Still for that read-out and setting: then `O=C(O)[C@H](Cc1ccccc1)NC(=O)[C@@H]1CCC(=O)N1Cc1ccccc1`, with 6.34; and `O=C(O)[C@H](Cc1ccc(/C=C/c2ccc([N+](=O)[O-])cc2)cc1)NC(=O)[C@@H]1CCC(=O)N1Cc1ccccc1`, with 7.05; and `O=C(O)[C@H](Cc1ccc(C#Cc2ccccc2)cc1)NC(=O)[C@@H]1CCC(=O)N1Cc1ccccc1`, with 7.28.
Consider `CC(=O)N[C@H](Cc1ccc(O)cc1)C(=O)Nc1ccc(C[C@H](NC(=O)[C@@H]2CCC(=O)N2Cc2ccccc2)C(=O)O)cc1`, for which the negative logarithm of the IC50 (pIC50) on Integrin alpha-4/beta-1 [2] was 5.72; on Integrin alpha-4/beta-1 [1], 8.28.
For `Cc1ccc([N+](=O)[O-])cc1C(=O)Nc1ccc(C[C@H](NC(=O)C2CCC(=O)N2Cc2ccccc2)C(=O)O)cc1` (stereo partly drawn) the same measures were 7.96 and 9.59.
Turning to `O=C(O)[C@H](Cc1ccc2ccccc2c1)NC(=O)[C@@H]1CCC(=O)N1Cc1ccccc1`, the negative logarithm of the IC50 (pIC50) on Integrin alpha-4/beta-1 [1] is 7.23.
On the same count and under the same terms, then `N#Cc1ccc(C[C@H](NC(=O)[C@@H]2CCC(=O)N2Cc2ccccc2)C(=O)O)cc1`, with 6.00; and `O=C(O)[C@H](Cc1ccc(OCc2ccc([N+](=O)[O-])cc2)cc1)NC(=O)[C@@H]1CCC(=O)N1Cc1ccccc1`, with 7.74; and `CC(=O)N[C@@H](Cc1ccc(O)cc1)C(=O)NCc1ccc(C[C@H](NC(=O)[C@@H]2CCC(=O)N2Cc2ccccc2)C(=O)O)cc1`, with 7.70.
For the molecule `COc1ccc(-c2cccnc2C(=O)Nc2ccc(C[C@H](NC(=O)C3CCC(=O)N3Cc3ccccc3)C(=O)O)cc2)cc1` (stereo partly drawn), the pIC50 on Integrin alpha-4/beta-1 [2] was 7.54; on Integrin alpha-4/beta-1 [1], 9.06.
In the same order, the values of `Cc1ccc([N+](=O)[O-])c(C(=O)Nc2ccc(C[C@H](NC(=O)C3CCC(=O)N3Cc3ccccc3)C(=O)O)cc2)c1` (stereo partly drawn) are 7.11 and 9.13.
Turning to `O=C(O)[C@H](Cc1ccc(COc2ccc([N+](=O)[O-])cc2)cc1)NC(=O)[C@@H]1CCC(=O)N1Cc1ccccc1`, on Integrin alpha-4/beta-1 [1], the negative logarithm of the IC50 (pIC50) was 7.49.
With `O=C(Nc1ccc(C[C@H](NC(=O)C2CCC(=O)N2Cc2ccccc2)C(=O)O)cc1)c1ccccc1[N+](=O)[O-]` (stereo partly drawn), the pIC50 was 7.48 on Integrin alpha-4/beta-1 [2] and 9.06 at Integrin alpha-4/beta-1 [1].

In general, pIC50 refers to the negative decadic logarithm of the IC50, by convention in mol/L.

These data come from ChEMBL document CHEMBL1133330, “N-benzylpyroglutamyl-L-phenylalanine derivatives as VCAM/VLA-4 antagonists” (Bioorg Med Chem Lett, 2000).
